≈ marks a conversion by molar mass, not a printed value. Bridge positions count the residues as written; N and C are the ends. Square brackets hold non-standard residues; d marks the D form. Peptide text beside a SMILES is read from it. * marks the point of attachment. Heptanoyl(6-Me) = CC(C)CCCCC(=O)*; Sulfomethyl = O=S(=O)(O)C*; dOrn = NCCC[C@@H](N)C(=O)O; Nonanoyl = CCCCCCCCC(=O)*; X1 = CC[C@H](C)CCCCC(=O)*; Octanoyl = CCCCCCCC(=O)*; Orn = NCCC[C@H](N)C(=O)O; dDap = NC[C@@H](N)C(=O)O; Dab = NCC[C@H](N)C(=O)O
Assays:
Assay type in all cases: cell-based
[1] = tested on: Pseudomonas aeruginosa PAE19-3; settings: PAE19-3
Summary of the method: (§1)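 Colonies from 18-24 h plates were suspended to 0.5 McFarland and diluted in MH broth. Two-fold compound dilutions were then mixed 1:1 with inoculum to reach 64 to 0.03 mg/L and (2-4) × 10^5 CFU/mL. Plates were sealed and incubated at 35-37°C for 16-20 h, after which the MIC was read.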

[2] = tested on: Pseudomonas aeruginosa ATCC 27853; settings: ATCC 27853
Summary of the method: as §1

[3] = tested on: Escherichia coli ATCC BAA-2340 (KPC); settings: ATCC BAA-2340
Summary of the method: as §1

[4] = tested on: Klebsiella pneumoniae KPN+19-15; settings: KPN+19-15
Summary of the method: as §1

[5] = tested on: Acinetobacter baumannii ABA19-1; settings: ABA19-1
Summary of the method: as §1

[6] = tested on: Klebsiella pneumoniae ATCC BAA-1705 (KPC); settings: ATCC BAA-1705
Summary of the method: as §1

[7] = tested on: Acinetobacter baumannii NCTC 13304 (OXA-27); settings: NCTC 13304
Summary of the method: as §1

[8] = tested on: Escherichia coli ATCC BAA-2523; settings: ATCC BAA-2523
Summary of the method: as §1

[9] = Nephrotoxicity assay: in vitro cytotoxicity of HK-2 cells by CCK-8 assay; settings: human, HK-2 cells (human renal), 72 h incubation with drug-containing medium
Summary of the method: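 HK-2 human renal cells in RPMI-1640 with 10% FBS were exposed to compounds at final 12.5–500 µg/mL for 72 h, then CCK-8 for 3 h and OD450 read. Viability was normalised to drug-free wells; IC50 came from logarithmic regression over three repeats, with polymyxin B as positive drug.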

Structure (SMILES): CCCCCCCCC(=O)N[C@@H](CCN)C(=O)N[C@H](C(=O)N[C@H](CN)C(=O)N[C@H]1CCNC(=O)[C@H]([C@@H](C)O)NC(=O)[C@H](CCN)NC(=O)[C@H](CCN)NC(=O)[C@H]([C@@H](C)O)NC(=O)[C@@H](Cc2ccccc2)NC(=O)[C@H](CCN)NC1=O)[C@@H](C)O [Compound 5, Nonanoyl-Dab-Thr-D-Dap-ring(4-10)[Dab-Dab-D-Phe-Thr-Dab-Dab-Thr]] (Nonanoyl-[Dab]T[dDap][Dab][Dab][dF]T[Dab][Dab]T; lactam 4-C)
- MIC [1]: 0.5 µg/mL (≈ 0.425 µM)
- MIC [2]: 0.06 µg/mL (≈ 0.051 µM)
- MIC [3]: 0.06 µg/mL (≈ 0.051 µM)
- MIC [4]: 0.06 µg/mL (≈ 0.051 µM)
- MIC [5]: 0.06 µg/mL (≈ 0.051 µM)
- MIC [6]: 0.06 µg/mL (≈ 0.051 µM)
- MIC [7]: 0.06 µg/mL (≈ 0.051 µM)
- MIC [8]: 0.06 µg/mL (≈ 0.051 µM)
- IC50 at 72 h [9]: 380 ± 30.5 µg/mL (≈ 323 µM)

Structure (SMILES): CCCCCCCC(=O)N[C@@H](CCN)C(=O)N[C@H](C(=O)N[C@H](CN)C(=O)N[C@H]1CCNC(=O)[C@H]([C@@H](C)O)NC(=O)[C@H](CCN)NC(=O)[C@H](CCN)NC(=O)[C@H]([C@@H](C)O)NC(=O)[C@@H](Cc2ccccc2)NC(=O)[C@H](CCN)NC1=O)[C@@H](C)O [Compound 3, Octanoyl-Dab-Thr-D-Dap-ring(4-10)[Dab-Dab-D-Phe-Thr-Dab-Dab-Thr]] (Octanoyl-[Dab]T[dDap][Dab][Dab][dF]T[Dab][Dab]T; lactam 4-C)
- MIC [1]: 0.25 µg/mL (≈ 0.215 µM)
- MIC [2]: 0.03 µg/mL (≈ 0.0258 µM)
- MIC [3]: ≤0.03 µg/mL
- MIC [4]: ≤0.03 µg/mL
- MIC [5]: ≤0.03 µg/mL
- MIC [6]: ≤0.03 µg/mL
- MIC [7]: ≤0.03 µg/mL
- MIC [8]: ≤0.03 µg/mL
- IC50 at 72 h [9]: > 500 µg/mL

Structure (SMILES): CC(C)CCCCC(=O)N[C@@H](CCN)C(=O)N[C@H](C(=O)N[C@H](COCS(=O)(=O)O)C(=O)N[C@H]1CCNC(=O)[C@H]([C@@H](C)O)NC(=O)[C@H](CCN)NC(=O)[C@H](CCN)NC(=O)[C@H]([C@@H](C)O)NC(=O)[C@@H](Cc2ccccc2)NC(=O)[C@H](CCN)NC1=O)[C@@H](C)O [Compound 103, 6-methylheptanoyl-Dab-Thr-D-Ser(CH2SO3H)-ring(4-10)[Dab-Dab-D-Phe-Thr-Dab-Dab-Thr]] ({Heptanoyl(6-Me)}-[Dab]T[dS](Sulfomethyl)[Dab][Dab][dF]T[Dab][Dab]T; lactam 4-C)
- MIC [1]: 0.25 µg/mL (≈ 0.199 µM)
- MIC [2]: 0.25 µg/mL (≈ 0.199 µM)
- MIC [3]: 0.03 µg/mL (≈ 0.0238 µM)
- MIC [4]: 0.125 µg/mL (≈ 0.0993 µM)
- MIC [5]: 0.06 µg/mL (≈ 0.0477 µM)
- MIC [6]: 0.125 µg/mL (≈ 0.0993 µM)
- MIC [7]: 0.06 µg/mL (≈ 0.0477 µM)
- MIC [8]: 0.03 µg/mL (≈ 0.0238 µM)
- IC50 at 72 h [9]: > 500 µg/mL

Structure (SMILES): CC(C)CCCCC(=O)N[C@@H](CCN)C(=O)N[C@H](C(=O)N[C@H](CCCN)C(=O)N[C@H]1CCNC(=O)[C@H]([C@@H](C)O)NC(=O)[C@H](CCN)NC(=O)[C@H](CCN)NC(=O)[C@H]([C@@H](C)O)NC(=O)[C@@H](Cc2ccccc2)NC(=O)[C@H](CCN)NC1=O)[C@@H](C)O [Compound 22, 6-methylheptanoyl-Dab-Thr-D-Orn-ring(4-10)[Dab-Dab-D-Phe-Thr-Dab-Dab-Thr]] ({Heptanoyl(6-Me)}-[Dab]T[dOrn][Dab][Dab][dF]T[Dab][Dab]T; lactam 4-C)
- MIC [1]: 1 µg/mL (≈ 0.839 µM)
- MIC [2]: 0.25 µg/mL (≈ 0.21 µM)
- MIC [3]: ≤0.03 µg/mL
- MIC [4]: 0.125 µg/mL (≈ 0.105 µM)
- MIC [5]: 0.125 µg/mL (≈ 0.105 µM)
- MIC [6]: 0.06 µg/mL (≈ 0.0504 µM)
- MIC [7]: 0.06 µg/mL (≈ 0.0504 µM)
- MIC [8]: ≤0.03 µg/mL
- IC50 at 72 h [9]: > 500 µg/mL

Structure (SMILES): CC[C@H](C)CCCCC(=O)N[C@@H](CCN)C(=O)N[C@H](C(=O)N[C@H](CO)C(=O)N[C@H]1CCNC(=O)[C@H]([C@@H](C)O)NC(=O)[C@H](CCN)NC(=O)[C@H](CCCN)NC(=O)[C@H]([C@@H](C)O)NC(=O)[C@@H](Cc2ccccc2)NC(=O)[C@H](CCN)NC1=O)[C@@H](C)O [Compound 76, (S)-6-methyloctanoyl-Dab-Thr-D-Ser-ring(4-10)[Dab-Dab-D-Phe-Thr-Orn-Dab-Thr]] (X1-[Dab]T[dS][Dab][Dab][dF]T[Orn][Dab]T; lactam 4-C)
- MIC [1]: 64 µg/mL (≈ 53.7 µM)
- MIC [2]: >64 µg/mL
- MIC [3]: ≤0.03 µg/mL
- MIC [4]: 0.5 µg/mL (≈ 0.419 µM)
- MIC [5]: 0.06 µg/mL (≈ 0.0503 µM)
- MIC [6]: 0.25 µg/mL (≈ 0.21 µM)
- MIC [7]: ≤0.03 µg/mL
- MIC [8]: ≤0.03 µg/mL
- IC50 at 72 h [9]: > 500 µg/mL

Source: patent publication EP4725957A1, “GROUP OF CYCLIC ALKALINE LIPOPEPTIDE COMPOUNDS, AND PREPARATION METHOD THEREFOR AND USE THEREOF” (Institute of Medicinal Biotechnology, Chinese Academy of …, priority 2023, dated 2024)
